Laboratory results taken from patent US20080039533A1, “Bioactive Compositions Comprising Triazines” (3M INNOVATIVE PROPERTIES COMPANY, priority 2003, published 2008).
Converted amounts (≈) assume the structure as drawn.

Experiment: physchem
Conditions: buffer solution without triazine compound

In the case of CC(C)Cn1cnc2c(N)nc3ccccc3c21 [Imiquimod], the solubility (pH 6.05, aqueous buffer) is reported as 20 µg/mL (≈ 83.2 µM) and the solubility (pH 7.82, aqueous buffer) is reported as 1.2 µg/mL (≈ 4.99 µM).
